Data taken from US7964531B2, “3-phenoxy-4-pyridazinol derivatives and herbicidal composition containing the same” (Mitsui Chemicals Agro, Inc., priority 2001, dated 2011).

Columns and labels:
Type in all cases: in vivo
[1] = tested on: transplanted paddy-field rice; assay: Test Example 4: crop injury against transplanted paddy-field rice; conditions: no second compound, after 25 days
Method in brief: (§1)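 Flooded greenhouse pots of paddy soil were sown in the top 1 cm with dormancy-broken weed seeds and planted with tubers, and 2.2-leaf rice was transplanted. Three days later, water-diluted wettable powder was applied at set dosages, and growth inhibition was rated 25 days after that on a 0 (0–15%) to 5 (96–100%) scale.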

Scirpus joncoides [2] = assay: Test Example 1: herbicidal effects, paddy-field pot test; conditions: wettable powder applied 3 days after transplanting, judged after 25 days
Method in brief: (§2)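 Scores are growth inhibition ratings from 0 (0–10%) to 5 (91–100%), judged 25 days after a water-diluted wettable powder was applied to flooded pots. Treatment followed transplanting of 2.2-leaf rice by 3 days; weeds were seeded at the soil surface or planted as germinated tubers.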

[3] = tested on: barnyardgrass (Echinochloa oryzicola Vasing.); assay: as above; conditions: wettable powder applied 3 days after transplanting, judged after 25 days
Method in brief: as §2

Cyperus serotinus [4] = assay: as above; conditions: wettable powder applied 3 days after transplanting, judged after 25 days
Method in brief: as §2

[5] = tested on: annual broad-leaved weeds (Lindernia spp., Rotala indica); assay: as above; conditions: wettable powder applied 3 days after transplanting, judged after 25 days
Method in brief: as §2

[6] = tested on: transplanted paddy-field rice; assay: Test Example 1: crop injury against transplanted paddy-field rice; conditions: wettable powder applied 3 days after transplanting, judged after 25 days
Method in brief: as §2

Scirpus joncoides [7] = assay: Test Example 4: herbicidal effects of mixed wettable powder, paddy-field pot test; conditions: no second compound, after 25 days
Method in brief: as §1

[8] = tested on: barnyardgrass (Echinochloa oryzicola Vasing.); assay: as above; conditions: no second compound, after 25 days
Method in brief: as §1

Cyperus serotinus [9] = assay: as above; conditions: no second compound, after 25 days
Method in brief: as §1

[10] = tested on: annual broad-leaved weeds (Lindernia spp. and Rotala indica); assay: as above; conditions: no second compound, after 25 days
Method in brief: as §1

Sagittaria pygmaea = assay: as above; conditions: no second compound, after 25 days
Method in brief: as §1

Eleocharis kuroguwai = assay: as above; conditions: no second compound, after 25 days
Method in brief: as §1

barnyardgrass = assay: Test Example 2: herbicidal effects (soil treatment); conditions: dosage 5 kg/a; soil treatment the day after seeding; judged after 21 days
Excerpt: (§3) Judgment Standard • 0: Growth inhibition rate; 0 to 10% • 1: Growth inhibition rate; 11 to 30% • 2: Growth inhibition rate; 31 to 50% • 3: Growth inhibition rate; 51 to 70% • 4: Growth inhibition rate; 71 to 90% • 5: Growth inhibition rate; 91 to 100%.
(§4) Upland soil was filled in 150 cm^2 pot, and seeds of barnyardgrass and indian mustard (Brassica juncea (L.) Czern. et Coss) were sowed, and grown in a greenhouse. At the next day of seeding, a predetermined chemical dosage of the wettable powder prepared in accordance with Preparation example 1 was diluted in water and applied to soil surface. After 21 days from the treatment, herbicidal effects were judged in accordance with the judgment standard of Test example 1, and the results were shown in Table 3.

[11] = tested on: indian mustard (Brassica juncea (L.) Czern. et Coss); assay: as above; conditions: dosage 5 kg/a; soil treatment the day after seeding; judged after 21 days
Excerpt: as §3, §4

Cc1cccc(Br)c1Oc1nnc(Cl)cc1O [Example 249]
Crop injury against transplanted rice ([1]; derivative 5 g/a): 0 (Growth-inhibition rate; 0 to 15%)
Crop injury against transplanted rice ([1]; derivative 10 g/a): 0 (Growth-inhibition rate; 0 to 15%)
Herbicidal effects Scirpus joncoides (Scirpus joncoides [2]; chemical dosage 10 g/a): 5 (Growth inhibition rate; 91 to 100%)
Herbicidal effects Scirpus joncoides (Scirpus joncoides [2]; chemical dosage 20 g/a): 5 (Growth inhibition rate; 91 to 100%)
Herbicidal effects Barnyard grass ([3]; chemical dosage 10 g/a): 2 (Growth inhibition rate; 31 to 50%)
Herbicidal effects Barnyard grass ([3]; chemical dosage 20 g/a): 3 (Growth inhibition rate; 51 to 70%)
Herbicidal effects Cyperus serotinus (Cyperus serotinus [4]; chemical dosage 10 g/a): 5 (Growth inhibition rate; 91 to 100%)
Herbicidal effects Cyperus serotinus (Cyperus serotinus [4]; chemical dosage 20 g/a): 5 (Growth inhibition rate; 91 to 100%)
Herbicidal effects Broad leaf ([5]; chemical dosage 10 g/a): 5 (Growth inhibition rate; 91 to 100%)
Herbicidal effects Broad leaf ([5]; chemical dosage 20 g/a): 5 (Growth inhibition rate; 91 to 100%)
Crop injury against transplanted rice ([6]; chemical dosage 10 g/a): 0 (Growth inhibition rate; 0 to 10%)
Crop injury against transplanted rice ([6]; chemical dosage 20 g/a): 3 (Growth inhibition rate; 51 to 70%)
Herbicidal effects Scirpus joncoides (Scirpus joncoides [7]; derivative 5 g/a): 3 (Growth inhibition rate; 56 to 75%)
Herbicidal effects Scirpus joncoides (Scirpus joncoides [7]; derivative 10 g/a): 5 (Growth inhibition rate; 96 to 100%)
Herbicidal effects Barnyard grass ([8]; derivative 5 g/a): 1 (Growth inhibition rate; 16 to 35%)
Herbicidal effects Barnyard grass ([8]; derivative 10 g/a): 2 (Growth inhibition rate; 36 to 55%)
Herbicidal effects Cyperus serotinus (Cyperus serotinus [9]; derivative 5 g/a): 5 (Growth inhibition rate; 96 to 100%)
Herbicidal effects Cyperus serotinus (Cyperus serotinus [9]; derivative 10 g/a): 5 (Growth inhibition rate; 96 to 100%)
Herbicidal effects Broad leaf ([10]; derivative 5 g/a): 5 (Growth inhibition rate; 96 to 100%)
Herbicidal effects Broad leaf ([10]; derivative 10 g/a): 5 (Growth inhibition rate; 96 to 100%)
Herbicidal effects Sagittaria pygmaea (Sagittaria pygmaea; derivative 5 g/a): 5 (Growth inhibition rate; 96 to 100%)
Herbicidal effects Sagittaria pygmaea (Sagittaria pygmaea; derivative 10 g/a): 5 (Growth inhibition rate; 96 to 100%)
Herbicidal effects Eleocharis kuroguwai (Eleocharis kuroguwai; derivative 5 g/a): 1 (Growth inhibition rate; 16 to 35%)
Herbicidal effects Eleocharis kuroguwai (Eleocharis kuroguwai; derivative 10 g/a): 2 (Growth inhibition rate; 36 to 55%)
Herbicidal effects Barnyard-grass (barnyardgrass): 4 (Growth inhibition rate; 71 to 90%)
Herbicidal effects indian mustard [11]: 5 (Growth inhibition rate; 91 to 100%)

Oc1cc(Cl)nnc1Oc1cccc2c1CCC2 [Example 171]
Crop injury against transplanted rice ([1]; derivative 5 g/a): 0 (Growth-inhibition rate; 0 to 15%)
Crop injury against transplanted rice ([1]; derivative 10 g/a): 0 (Growth-inhibition rate; 0 to 15%)
Herbicidal effects Scirpus joncoides (Scirpus joncoides [2]; chemical dosage 10 g/a): 5 (Growth inhibition rate; 91 to 100%)
Herbicidal effects Scirpus joncoides (Scirpus joncoides [2]; chemical dosage 20 g/a): 5 (Growth inhibition rate; 91 to 100%)
Herbicidal effects Barnyard grass ([3]; chemical dosage 10 g/a): 3 (Growth inhibition rate; 51 to 70%)
Herbicidal effects Barnyard grass ([3]; chemical dosage 20 g/a): 4 (Growth inhibition rate; 71 to 90%)
Herbicidal effects Cyperus serotinus (Cyperus serotinus [4]; chemical dosage 10 g/a): 5 (Growth inhibition rate; 91 to 100%)
Herbicidal effects Cyperus serotinus (Cyperus serotinus [4]; chemical dosage 20 g/a): 5 (Growth inhibition rate; 91 to 100%)
Herbicidal effects Broad leaf ([5]; chemical dosage 10 g/a): 5 (Growth inhibition rate; 91 to 100%)
Herbicidal effects Broad leaf ([5]; chemical dosage 20 g/a): 5 (Growth inhibition rate; 91 to 100%)
Crop injury against transplanted rice ([6]; chemical dosage 10 g/a): 0 (Growth inhibition rate; 0 to 10%)
Crop injury against transplanted rice ([6]; chemical dosage 20 g/a): 0 (Growth inhibition rate; 0 to 10%)
Herbicidal effects Scirpus joncoides (Scirpus joncoides [7]; derivative 5 g/a): 5 (Growth inhibition rate; 96 to 100%)
Herbicidal effects Scirpus joncoides (Scirpus joncoides [7]; derivative 10 g/a): 5 (Growth inhibition rate; 96 to 100%)
Herbicidal effects Barnyard grass ([8]; derivative 5 g/a): 2 (Growth inhibition rate; 36 to 55%)
Herbicidal effects Barnyard grass ([8]; derivative 10 g/a): 3 (Growth inhibition rate; 56 to 75%)
Herbicidal effects Cyperus serotinus (Cyperus serotinus [9]; derivative 5 g/a): 5 (Growth inhibition rate; 96 to 100%)
Herbicidal effects Cyperus serotinus (Cyperus serotinus [9]; derivative 10 g/a): 5 (Growth inhibition rate; 96 to 100%)
Herbicidal effects Broad leaf ([10]; derivative 5 g/a): 5 (Growth inhibition rate; 96 to 100%)
Herbicidal effects Broad leaf ([10]; derivative 10 g/a): 5 (Growth inhibition rate; 96 to 100%)
Herbicidal effects Sagittaria pygmaea (Sagittaria pygmaea; derivative 5 g/a): 5 (Growth inhibition rate; 96 to 100%)
Herbicidal effects Sagittaria pygmaea (Sagittaria pygmaea; derivative 10 g/a): 5 (Growth inhibition rate; 96 to 100%)
Herbicidal effects Eleocharis kuroguwai (Eleocharis kuroguwai; derivative 5 g/a): 2 (Growth inhibition rate; 36 to 55%)
Herbicidal effects Eleocharis kuroguwai (Eleocharis kuroguwai; derivative 10 g/a): 3 (Growth inhibition rate; 56 to 75%)
Herbicidal effects Barnyard-grass (barnyardgrass): 5 (Growth inhibition rate; 91 to 100%)
Herbicidal effects indian mustard [11]: 5 (Growth inhibition rate; 91 to 100%)

Oc1cc(Cl)nnc1Oc1c(Cl)cccc1C1CC1 [Example 245]
Crop injury against transplanted rice ([1]; derivative 5 g/a): 0 (Growth-inhibition rate; 0 to 15%)
Crop injury against transplanted rice ([1]; derivative 10 g/a): 0 (Growth-inhibition rate; 0 to 15%)
Herbicidal effects Scirpus joncoides (Scirpus joncoides [2]; chemical dosage 10 g/a): 5 (Growth inhibition rate; 91 to 100%)
Herbicidal effects Scirpus joncoides (Scirpus joncoides [2]; chemical dosage 20 g/a): 5 (Growth inhibition rate; 91 to 100%)
Herbicidal effects Barnyard grass ([3]; chemical dosage 10 g/a): 4 (Growth inhibition rate; 71 to 90%)
Herbicidal effects Barnyard grass ([3]; chemical dosage 20 g/a): 4 (Growth inhibition rate; 71 to 90%)
Herbicidal effects Cyperus serotinus (Cyperus serotinus [4]; chemical dosage 10 g/a): 5 (Growth inhibition rate; 91 to 100%)
Herbicidal effects Cyperus serotinus (Cyperus serotinus [4]; chemical dosage 20 g/a): 5 (Growth inhibition rate; 91 to 100%)
Herbicidal effects Broad leaf ([5]; chemical dosage 10 g/a): 5 (Growth inhibition rate; 91 to 100%)
Herbicidal effects Broad leaf ([5]; chemical dosage 20 g/a): 5 (Growth inhibition rate; 91 to 100%)
Crop injury against transplanted rice ([6]; chemical dosage 10 g/a): 0 (Growth inhibition rate; 0 to 10%)
Crop injury against transplanted rice ([6]; chemical dosage 20 g/a): 0 (Growth inhibition rate; 0 to 10%)
Herbicidal effects Scirpus joncoides (Scirpus joncoides [7]; derivative 5 g/a): 5 (Growth inhibition rate; 96 to 100%)
Herbicidal effects Scirpus joncoides (Scirpus joncoides [7]; derivative 10 g/a): 5 (Growth inhibition rate; 96 to 100%)
Herbicidal effects Barnyard grass ([8]; derivative 5 g/a): 3 (Growth inhibition rate; 56 to 75%)
Herbicidal effects Barnyard grass ([8]; derivative 10 g/a): 4 (Growth inhibition rate; 7.6 to 95%)
Herbicidal effects Cyperus serotinus (Cyperus serotinus [9]; derivative 5 g/a): 4 (Growth inhibition rate; 7.6 to 95%)
Herbicidal effects Cyperus serotinus (Cyperus serotinus [9]; derivative 10 g/a): 5 (Growth inhibition rate; 96 to 100%)
Herbicidal effects Broad leaf ([10]; derivative 5 g/a): 5 (Growth inhibition rate; 96 to 100%)
Herbicidal effects Broad leaf ([10]; derivative 10 g/a): 5 (Growth inhibition rate; 96 to 100%)
Herbicidal effects Sagittaria pygmaea (Sagittaria pygmaea; derivative 5 g/a): 4 (Growth inhibition rate; 7.6 to 95%)
Herbicidal effects Sagittaria pygmaea (Sagittaria pygmaea; derivative 10 g/a): 5 (Growth inhibition rate; 96 to 100%)
Herbicidal effects Eleocharis kuroguwai (Eleocharis kuroguwai; derivative 5 g/a): 0 (Growth-inhibition rate; 0 to 15%)
Herbicidal effects Eleocharis kuroguwai (Eleocharis kuroguwai; derivative 10 g/a): 1 (Growth inhibition rate; 16 to 35%)
Herbicidal effects Barnyard-grass (barnyardgrass): 3 (Growth inhibition rate; 51 to 70%)
Herbicidal effects indian mustard [11]: 5 (Growth inhibition rate; 91 to 100%)
